Experiments:
[1] = system: constitutive active colorectal cancer cell (CRC) Wnt pathway; test: HCT116 TOPFlash cellular reporter assay (Super TopFlash luciferase), constitutive active Wnt pathway; assay type: cell-based; conditions: HCT116 TOP reporter cells, 36 hours incubation, luciferase expression
Description: In order to discover and characterize small molecules which inhibit the constitutive active colorectal cancer cell (CRC) Wnt pathway, a cellular reporter assay was employed. […] Stable transfectants were generated by cotransfection with pcDNA3 and selection of stable transfected cells with 1 mg/ml G418.

[2] = system: HCT116 FOP control reporter cell line; test: HCT116 FOPFlash control reporter assay (FOP control vector, non-functional TCF elements); assay type: cell-based; conditions: HCT116 FOP control reporter cells, 36 hours incubation, luciferase expression
Description: In a parallel approach, HCT116 cells were cotransfected with the FOP control vector and pcDNA3. The FOP vector is identical to the TOP construct, but it contains instead of functional TCF elements a randomized, non-functional sequence. For this transfection a stable transfected cell line was generated as well.

Row | Compound | IC50 ([1]; Homo sapiens, HCT-116, 36 h) [nM] | IC50 ([2]; Homo sapiens, HCT-116, 36 h) [nM] | IC50 [1] [nM] | IC50 [2] [nM]
1 | CN1CCN(CC(=O)Nc2cc(C(=O)Nc3nnc(-c4ccccc4)s3)ccc2CS(C)(=O)=O)CC1 [Example 104, 3-{[(4-methylpiperazin-1-yl)acetyl]amino}-4-[(methylsulfonyl)methyl]-N-(5-phenyl-1,3,4-thiadiazol-2-yl)benzamide] | 2030 | ≥ 50000 |  | 
2 | CN1CCN(CC(=O)Nc2cc(C(=O)Nc3nnc(-c4ccccc4C(F)(F)F)s3)ccc2OC(F)(F)F)CC1 [Example 270, 3-{[(4-methylpiperazin-1-yl)acetyl]amino}-4-(trifluoromethoxy)-N-{5-[2-(trifluoromethyl)phenyl]-1,3,4-thiadiazol-2-yl}benzamide] | 390 | ≥ 50000 |  | 
3 | O=C(CN1CCN(C2CC2)CC1)Nc1cc(C(=O)Nc2nnc(-c3ccccc3)s2)ccc1OCC1CC1 [Example 265, 4-(cyclopropylmethoxy)-3-{[(4-cyclopropylpiperazin-1-yl)acetyl]amino}-N-(5-phenyl-1,3,4-thiadiazol-2-yl)benzamide] | 320 | ≥ 50000 |  | 
4 | CC(C(=O)Nc1cc(C(=O)Nc2ccc(-c3ccccc3F)nc2)ccc1C(F)(F)F)N1CCOCC1 (centres unmarked) [Example 207, N-[6-(2-fluorophenyl)pyridin-3-yl]-3-{[2-(morpholin-4-yl)propanoyl]amino}-4-(trifluoromethyl)benzamide] |  |  | 153 | 8550
5 | CS(=O)(=O)Cc1ccc(C(=O)Nc2nnc(-c3ccccc3)s2)cc1NC(=O)CN1CCOCC1 [Example 235, 4-[(methylsulfonyl)methyl]-3-[(morpholin-4-ylacetyl)amino]-N-(5-phenyl-1,3,4-thiadiazol-2-yl)benzamide] | 1310 | ≥ 50000 |  | 
6 | COc1cccc(-c2nnc(NC(=O)c3ccc(OC(F)(F)F)c(NC(=O)CN4CCN(C)CC4)c3)s2)c1 [Example 146, N-[5-(3-methoxyphenyl)-1,3,4-thiadiazol-2-yl]-3-{[(4-methylpiperazin-1-yl)acetyl]amino}-4-(trifluoromethoxy)benzamide] | 365 | ≥ 50000 |  | 
7 | CC(C(=O)Nc1cc(C(=O)Nc2nnc(-c3ccccc3)s2)ccc1C(F)(F)F)N1CCN(C)CC1 (centres unmarked) [Example 129, 3-{[2-(4-methylpiperazin-1-yl)propanoyl]amino}-N-(5-phenyl-1,3,4-thiadiazol-2-yl)-4-(trifluoromethyl)benzamide] | 900 | ≥ 50000 |  | 
8 | COc1ccc(NC(=O)c2ncc(-c3ccccc3)s2)cc1NC(=O)CN1CCOCC1 [Example 23, N-{4-methoxy-3-[(morpholin-4-ylacetyl)amino]phenyl}-5-phenyl-1,3-thiazole-2-carboxamide] | 98 | ≥ 50000 |  | 
9 | Nc1ccc(-c2nnc(NC(=O)c3ccc(OC(F)(F)F)c(NC(=O)CN4CCOCC4)c3)s2)cc1 [Example 263, N-[5-(4-aminophenyl)-1,3,4-thiadiazol-2-yl]-3-[(morpholin-4-ylacetyl)amino]-4-(trifluoromethoxy)benzamide] | 250 | ≥ 50000 |  | 
10 | O=C(CN1CCOCC1)Nc1cc(C(=O)Nc2nnc(-c3cccc(Cl)c3)s2)ccc1OC(F)(F)F [Example 154, N-[5-(3-chlorophenyl)-1,3,4-thiadiazol-2-yl]-3-[(morpholin-4-ylacetyl)amino]-4-(trifluoromethoxy)benzamide] | 420 | ≥ 50000 |  | 
11 | COCCNC(=O)c1ccc(C(=O)Nc2nnc(-c3ccccc3)s2)cc1NC(=O)CN1CCN(C)CC1 [Example 155, N^1-(2-methoxyethyl)-2-{[(4-methylpiperazin-1-yl)acetyl]amino}-N^4-(5-phenyl-1,3,4-thiadiazol-2-yl)terephthalamide] | 592 | 32500 |  | 
12 | CN1CCN(C2(C(=O)Nc3cc(C(=O)Nc4nnc(-c5ccccc5)s4)ccc3OC3CC3)CC2)CC1 [Example 171, 4-(cyclopropyloxy)-3-({[1-(4-methylpiperazin-1-yl)cyclopropyl]carbonyl}amino)-N-(5-phenyl-1,3,4-thiadiazol-2-yl)benzamide] | 102 | ≥ 50000 |  | 

Other lines, results leading:

Row | IC50 ([1]; Homo sapiens, HCT-116, 36 h) [nM] | IC50 ([2]; Homo sapiens, HCT-116, 36 h) [nM] | IC50 [1] [nM] | IC50 [2] [nM] | Compound
13 | 196 | 11000 |  |  | O=C(CN1C[C@@H]2C[C@H]1CO2)Nc1cc(NC(=O)c2ccc(-c3cc(F)cc(F)c3)nc2)ccc1OC(F)(F)F [Example 184, 6-(3,5-difluorophenyl)-N-[3-{[(1S,4S)-2-oxa-5-azabicyclo[2.2.1]hept-5-ylacetyl]amino}-4-(trifluoromethoxy)phenyl] nicotinamide]
14 | 2300 | ≥ 50000 |  |  | COc1ccc(NC(=O)c2ccc(-c3ccc(F)cc3)nc2)cc1NC(=O)CN1CCOCC1 [Example 229, 6-(4-fluorophenyl)-N-{4-methoxy-3-[(morpholin-4-ylacetyl)amino]phenyl} nicotinamide]
15 | 1220 | ≥ 50000 |  |  | COc1ccc(NC(=O)c2ccc(-c3ccccc3)nc2)cc1NC(=O)CN1CCOCC1 [Example 34, N-{4-methoxy-3-[(morpholin-4-ylacetyl)amino]phenyl}-6-phenylnicotinamide]
16 | 46 | ≥ 50000 |  |  | CC(C(=O)Nc1cc(C(=O)Nc2ccc(-c3ccc(N(C)C)cc3)nc2)ccc1OC(F)(F)F)N1CCOCC1 (centres unmarked) [Example 114, N-{6-[4-(dimethylamino)phenyl]pyridin-3-yl}-3-{[2-(morpholin-4-yl)propanoyl]amino}-4-(trifluoromethoxy)benzamide]
17 | 245 | 6500 |  |  | O=C(CN1CC2CCC(C1)O2)Nc1cc(C(=O)Nc2ccc(-c3ccccc3F)nc2)ccc1C(F)(F)F [Example 226, N-[6-(2-fluorophenyl)pyridin-3-yl]-3-[(8-oxa-3-azabicyclo[3.2.1]oct-3-ylacetyl)amino]-4-(trifluoromethyl)benzamide]
18 | 85.8 | 42200 |  |  | O=C(CN1CCOCC1)Nc1cc(C(=O)Nc2ccc(-c3ccccc3F)nc2)ccc1C(F)(F)F [Example 74, N-[6-(2-fluorophenyl)pyridin-3-yl]-3-[(morpholin-4-ylacetyl)amino]-4-(trifluoromethyl)benzamide]
19 |  |  | 20.2 | 18200 | CC(C(=O)Nc1cc(NC(=O)c2ccc(-c3ccccc3F)nc2)ccc1OC(F)(F)F)N1CC2CCC(C1)O2 (centres unmarked) [Example 205, 6-(2-fluorophenyl)-N-[3-{[2-(8-oxa-3-azabicyclo[3.2.1]oct-3-yl)propanoyl]amino}-4-(trifluoromethoxy)phenyl] nicotinamide]
20 | 260 | 3600 |  |  | O=C(CN1CC2CCC(C1)O2)Nc1cc(NC(=O)c2ccc(-c3cc(F)cc(F)c3)nc2)ccc1OC(F)(F)F [Example 216, 6-(3,5-difluorophenyl)-N-{3-[(8-oxa-3-azabicyclo[3.2.1]oct-3-ylacetyl)amino]-4-(trifluoromethoxy)phenyl} nicotinamide]
21 | 362 | ≥ 50000 |  |  | O=C(CN1CCOCC1)Nc1cc(C(=O)Nc2ccc(-c3ccccc3)nc2)ccc1C(F)(F)F [Example 13, 3-[(morpholin-4-ylacetyl)amino]-N-(6-phenylpyridin-3-yl)-4-(trifluoromethyl)benzamide]
22 | 375 | 6300 |  |  | O=C(CN1C[C@@H]2C[C@H]1CO2)Nc1cc(C(=O)Nc2ccc(-c3cc(F)cc(F)c3)nc2)ccc1OC(F)(F)F [Example 214, N-[6-(3,5-difluorophenyl)pyridin-3-yl]-3-{[(1S,4S)-2-oxa-5-azabicyclo[2.2.1]hept-5-ylacetyl]amino}-4-(trifluoromethoxy)benzamide]
23 |  |  | 245 | ≥ 50000 | CC(C(=O)Nc1cc(NC(=O)c2ccc(-c3cc(F)cc(F)c3)nc2)ccc1OC(F)(F)F)N1CCOCC1 (centres unmarked) [Example 219, 6-(3,5-difluorophenyl)-N-[3-{[2-(morpholin-4-yl)propanoyl]amino}-4-(trifluoromethoxy)phenyl] nicotinamide]
24 | 222 | ≥ 50000 |  |  | CC(C(=O)Nc1cc(C(=O)Nc2ccc(-c3ccc(O)cc3)nc2)ccc1OC(F)(F)F)N1CCOCC1 (centres unmarked) [Example 195, N-[6-(4-hydroxyphenyl)pyridin-3-yl]-3-{[2-(morpholin-4-yl)propanoyl]amino}-4-(trifluoromethoxy)benzamide]
25 | 704 | 47500 |  |  | CN1CCN(CC(=O)Nc2cc(C(=O)Nc3nnc(-c4ccc(F)cc4)s3)ccc2OC(F)(F)F)CC1 [Example 149, N-[5-(4-fluorophenyl)-1,3,4-thiadiazol-2-yl]-3-{[(4-methylpiperazin-1-yl)acetyl]amino}-4-(trifluoromethoxy)benzamide]
26 |  |  | 42.4 | 3800 | CC(C(=O)Nc1cc(C(=O)Nc2ccc(-c3cc(F)cc(F)c3)nc2)ccc1OC(F)(F)F)N1CC2CCC(C1)O2 (centres unmarked) [Example 178, N-[6-(3,5-difluorophenyl)pyridin-3-yl]-3-{[2-(8-oxa-3-azabicyclo[3.2.1]oct-3-yl)propanoyl]amino}-4-(trifluoromethoxy)benzamide]
27 | 858 | ≥ 50000 |  |  | O=C(CN1CCN(CC(F)F)CC1)Nc1cc(C(=O)Nc2ccc(-c3ccccc3F)nc2)ccc1OC(F)(F)F [Example 100, 3-({[4-(2,2-difluoroethyl)piperazin-1-yl]acetyl}amino)-N-[6-(2-fluorophenyl)pyridin-3-yl]-4-(trifluoromethoxy)benzamide]
28 | 362 | ≥ 50000 |  |  | CN(C)C1(C(=O)Nc2cc(C(=O)Nc3ccc(-c4ccccc4F)nc3)ccc2OC(F)(F)F)CC1 [Example 179, 3-({[1-(dimethylamino)cyclopropyl]carbonyl}amino)-N-[6-(2-fluorophenyl)pyridin-3-yl]-4-(trifluoromethoxy)benzamide]
